Results published in article PMC5862990, “Dynamical origins of heat capacity changes in enzyme-catalysed reactions” (Nature Communications, 2018).

Biological target: T1, MalL (Bacillus subtilis, UniProt O06994)
T1 construct: wild-type, recombinant, monomeric
Assay: X-ray co-crystal structure
Type: binding
Conditions: co-crystallised with 0.5 mM ligand, 18 °C; active site; transition-state analogue

T1 sequence (O06994 whole entry): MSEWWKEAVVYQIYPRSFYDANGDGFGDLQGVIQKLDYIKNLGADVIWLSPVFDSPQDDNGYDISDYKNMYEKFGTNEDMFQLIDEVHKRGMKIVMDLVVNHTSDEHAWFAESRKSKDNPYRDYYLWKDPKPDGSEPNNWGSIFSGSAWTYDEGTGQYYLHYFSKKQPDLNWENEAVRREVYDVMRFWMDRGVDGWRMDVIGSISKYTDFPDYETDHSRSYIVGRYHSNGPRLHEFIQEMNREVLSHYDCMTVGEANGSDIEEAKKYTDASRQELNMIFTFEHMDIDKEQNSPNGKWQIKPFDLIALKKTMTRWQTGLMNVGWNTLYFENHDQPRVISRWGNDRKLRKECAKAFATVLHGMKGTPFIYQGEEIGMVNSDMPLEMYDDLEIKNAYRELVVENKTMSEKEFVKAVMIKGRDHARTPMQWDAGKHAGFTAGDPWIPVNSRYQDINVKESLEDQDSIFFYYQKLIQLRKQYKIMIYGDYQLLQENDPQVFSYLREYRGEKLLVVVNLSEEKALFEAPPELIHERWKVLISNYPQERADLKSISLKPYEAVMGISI

OC[C@H]1NC[C@H](O)[C@@H](O)[C@@H]1O [1-deoxynojirimycin]
X-ray co-crystal structure: Coordinates and structure factors for MalL co-crystallised with 1-deoxynojirimycin are deposited in the PDB
